Laboratory results: ChEMBL document CHEMBL1177794, “Broad spectrum alkynyl inhibitors of T315I Bcr-Abl” (Bioorg Med Chem Lett, 2010)

Legend:
[1] = molecular target: Receptor tyrosine-protein kinase erbB-3 (Homo sapiens) (UniProt P21860); assay: Inhibition of ERBB3 at 10 uM; values are per cent of control
[2] = tested on: Tyrosine-protein kinase ABL1 (Homo sapiens), P00519 [F317I]; assay: Inhibition of phosphorylated ABL1 F317I mutant at 10 uM; settings: values are per cent of control
[3] = molecular target: Atypical kinase COQ8A, mitochondrial (Homo sapiens) (UniProt Q8NI60); assay: Inhibition of ADCK3 at 10 uM; settings: values are per cent of control
[4] = molecular target: Serine/threonine-protein kinase RIO2 (Homo sapiens) (UniProt Q9BVS4); assay: Inhibition of RIOK2 at 10 uM; settings: values are per cent of control
Serine/threonine-protein kinase RIO2 (Homo sapiens), sequence (Q9BVS4 whole entry, looked up, the tested form may be a part): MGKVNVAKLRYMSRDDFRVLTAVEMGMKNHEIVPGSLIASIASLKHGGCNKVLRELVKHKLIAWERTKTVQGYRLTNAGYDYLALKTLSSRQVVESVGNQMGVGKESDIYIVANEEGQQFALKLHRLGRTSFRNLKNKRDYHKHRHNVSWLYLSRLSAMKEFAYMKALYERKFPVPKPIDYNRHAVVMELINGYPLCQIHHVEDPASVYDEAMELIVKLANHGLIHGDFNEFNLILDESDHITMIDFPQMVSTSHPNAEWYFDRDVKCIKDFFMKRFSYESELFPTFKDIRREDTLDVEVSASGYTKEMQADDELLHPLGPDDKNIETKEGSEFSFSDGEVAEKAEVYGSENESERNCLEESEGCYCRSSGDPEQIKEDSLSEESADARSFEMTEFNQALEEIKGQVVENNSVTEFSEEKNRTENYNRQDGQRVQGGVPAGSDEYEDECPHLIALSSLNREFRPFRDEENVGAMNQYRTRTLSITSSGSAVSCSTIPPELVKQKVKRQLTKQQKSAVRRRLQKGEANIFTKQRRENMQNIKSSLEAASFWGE

[5] = molecular target: Non-receptor tyrosine-protein kinase TYK2 (Homo sapiens) (UniProt P29597); assay: Inhibition of TYK2 JH2 pseudokinase domain at 10 uM; settings: values are per cent of control
[6] = molecular target: Ribosomal protein S6 kinase beta-1 (Homo sapiens) (UniProt P23443); assay: Inhibition of S6K1 at 10 uM
[7] = molecular target: TGF-beta receptor type-2 (Homo sapiens) (UniProt P37173); assay: Inhibition of TGFBR2 at 10 uM
[8] = molecular target: Serine/threonine-protein kinase MARK2 (Homo sapiens) (UniProt Q7KZI7); assay: Inhibition of MARK2 at 10 uM; settings: values are per cent of control
[9] = molecular target: Mitogen-activated protein kinase kinase kinase kinase 1 (Homo sapiens) (UniProt Q92918); assay: Inhibition of HPK1 at 10 uM; settings: values are per cent of control
[10] = molecular target: 5'-AMP-activated protein kinase catalytic subunit alpha-2 (Homo sapiens) (UniProt P54646); assay: Inhibition of AMPK-alpha2 at 10 uM; settings: values are per cent of control
5'-AMP-activated protein kinase catalytic subunit alpha-2 (Homo sapiens), sequence (P54646 whole entry, looked up): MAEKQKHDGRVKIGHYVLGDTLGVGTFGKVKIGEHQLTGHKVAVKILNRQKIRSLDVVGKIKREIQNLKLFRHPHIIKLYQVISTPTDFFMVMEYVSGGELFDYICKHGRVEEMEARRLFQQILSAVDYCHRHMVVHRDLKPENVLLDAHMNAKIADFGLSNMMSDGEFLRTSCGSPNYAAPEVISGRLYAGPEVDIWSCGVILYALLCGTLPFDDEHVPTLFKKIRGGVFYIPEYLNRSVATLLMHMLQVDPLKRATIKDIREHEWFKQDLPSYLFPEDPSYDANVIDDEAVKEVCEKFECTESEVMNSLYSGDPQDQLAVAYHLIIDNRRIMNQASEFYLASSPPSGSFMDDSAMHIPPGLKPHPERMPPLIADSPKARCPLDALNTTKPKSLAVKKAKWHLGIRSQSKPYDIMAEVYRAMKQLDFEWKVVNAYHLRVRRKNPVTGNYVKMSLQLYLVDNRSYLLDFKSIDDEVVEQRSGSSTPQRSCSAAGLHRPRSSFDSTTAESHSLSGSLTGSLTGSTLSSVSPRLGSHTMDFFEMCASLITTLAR

[11] = molecular target: Serine/threonine-protein kinase 16 (Homo sapiens) (UniProt O75716); assay: Inhibition of STK16 at 10 uM
[12] = molecular target: RAC-alpha serine/threonine-protein kinase (Homo sapiens) (UniProt P31749); assay: Inhibition of AKT1 at 10 uM; settings: values are per cent of control
[13] = molecular target: Interleukin-1 receptor-associated kinase 3 (Homo sapiens) (UniProt Q9Y616); assay: Inhibition of IRAK3 at 10 uM; settings: values are per cent of control
[14] = molecular target: Insulin receptor-related protein (Homo sapiens) (UniProt P14616); assay: Inhibition of INSRR at 10 uM; settings: values are per cent of control
Insulin receptor-related protein (Homo sapiens), sequence (P14616 27-742 limits assumed): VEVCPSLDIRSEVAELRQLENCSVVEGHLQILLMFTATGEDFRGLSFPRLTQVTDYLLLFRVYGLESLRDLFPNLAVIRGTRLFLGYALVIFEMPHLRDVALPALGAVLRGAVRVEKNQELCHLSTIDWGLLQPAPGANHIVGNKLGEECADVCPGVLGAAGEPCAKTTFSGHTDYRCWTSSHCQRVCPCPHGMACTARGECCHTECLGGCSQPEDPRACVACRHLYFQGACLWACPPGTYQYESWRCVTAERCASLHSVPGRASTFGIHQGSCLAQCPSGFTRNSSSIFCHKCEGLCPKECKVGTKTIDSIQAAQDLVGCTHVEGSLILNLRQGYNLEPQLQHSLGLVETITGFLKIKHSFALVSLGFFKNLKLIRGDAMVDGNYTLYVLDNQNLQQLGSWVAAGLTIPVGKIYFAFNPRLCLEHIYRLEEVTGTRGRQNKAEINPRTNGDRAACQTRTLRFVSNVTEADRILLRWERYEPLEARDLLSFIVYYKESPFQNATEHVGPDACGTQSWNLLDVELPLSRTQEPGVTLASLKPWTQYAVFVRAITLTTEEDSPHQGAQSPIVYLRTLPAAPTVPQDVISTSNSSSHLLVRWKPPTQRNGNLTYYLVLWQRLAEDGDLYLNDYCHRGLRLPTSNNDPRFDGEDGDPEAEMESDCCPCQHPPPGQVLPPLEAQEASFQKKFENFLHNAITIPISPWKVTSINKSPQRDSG
Insulin receptor-related protein (Homo sapiens), sequence (P14616 747-1297 limits assumed): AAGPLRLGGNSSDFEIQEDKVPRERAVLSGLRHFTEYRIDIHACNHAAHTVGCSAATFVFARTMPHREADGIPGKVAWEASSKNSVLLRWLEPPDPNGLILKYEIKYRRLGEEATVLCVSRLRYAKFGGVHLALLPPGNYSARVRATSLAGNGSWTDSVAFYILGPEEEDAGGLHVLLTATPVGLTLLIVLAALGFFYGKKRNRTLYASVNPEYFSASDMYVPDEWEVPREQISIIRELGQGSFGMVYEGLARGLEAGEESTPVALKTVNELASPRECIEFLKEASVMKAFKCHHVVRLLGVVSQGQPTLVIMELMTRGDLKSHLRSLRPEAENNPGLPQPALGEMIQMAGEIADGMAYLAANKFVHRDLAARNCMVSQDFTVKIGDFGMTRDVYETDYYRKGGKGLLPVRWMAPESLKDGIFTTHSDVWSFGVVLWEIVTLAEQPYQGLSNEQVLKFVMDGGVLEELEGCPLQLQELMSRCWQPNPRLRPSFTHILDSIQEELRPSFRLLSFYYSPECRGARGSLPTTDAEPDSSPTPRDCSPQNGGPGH

[15] = molecular target: Tyrosine-protein kinase Yes (Homo sapiens) (UniProt P07947); assay: Inhibition of YES at 10 uM; settings: values are per cent of control
[16] = molecular target: Serine/threonine-protein kinase 35 (Homo sapiens) (UniProt Q8TDR2); assay: Inhibition of STK35 at 10 uM
[17] = molecular target: Mitogen-activated protein kinase kinase kinase 12 (Homo sapiens) (UniProt Q12852); assay: Inhibition of DLK at 10 uM; values are per cent of control
[18] = molecular target: MAP kinase-interacting serine/threonine-protein kinase 2 (Homo sapiens) (UniProt Q9HBH9); assay: Inhibition of MKNK2 at 10 uM
[19] = molecular target: Mitogen-activated protein kinase kinase kinase kinase 5 (Homo sapiens) (UniProt Q9Y4K4); assay: Inhibition of MAP4K5 at 10 uM; settings: values are per cent of control
[20] = molecular target: Phosphatidylinositol 3-kinase C2 domain-containing subunit gamma (Homo sapiens) (UniProt O75747); assay: Inhibition of PIK3C2G at 10 uM
[21] = tested on: Tyrosine-protein kinase ABL1 (Homo sapiens), P00519 [F317L]; assay: Inhibition of phosphorylated ABL1 F317L mutant at 10 uM; settings: values are per cent of control
[22] = molecular target: Cyclin-dependent kinase 14 (Homo sapiens) (UniProt O94921); assay: Inhibition of PFTK1 at 10 uM; settings: values are per cent of control
[23] = molecular target: Serine/threonine-protein kinase PknB (Mycobacterium tuberculosis) (UniProt P9WI81); assay: Inhibition of Mycobacterium tuberculosis PKNB at 10 uM
[24] = molecular target: 5'-AMP-activated protein kinase catalytic subunit alpha-1 (Homo sapiens) (UniProt Q13131); assay: Inhibition of AMPK-alpha1 at 10 uM; settings: values are per cent of control
[25] = molecular target: Homeodomain-interacting protein kinase 1 (Homo sapiens) (UniProt Q86Z02); assay: Inhibition of HIPK1 at 10 uM; settings: values are per cent of control
[26] = molecular target: Calcium/calmodulin-dependent protein kinase type II subunit beta (Homo sapiens) (UniProt Q13554); assay: Inhibition of CAMK2B at 10 uM; settings: values are per cent of control
[27] = molecular target: SRSF protein kinase 2 (Homo sapiens) (UniProt P78362); assay: Inhibition of SRPK2 at 10 uM
[28] = molecular target: Rhodopsin kinase GRK7 (Homo sapiens) (UniProt Q8WTQ7); assay: Inhibition of GRK7 at 10 uM; settings: values are per cent of control
Rhodopsin kinase GRK7 (Homo sapiens), sequence (Q8WTQ7 whole entry): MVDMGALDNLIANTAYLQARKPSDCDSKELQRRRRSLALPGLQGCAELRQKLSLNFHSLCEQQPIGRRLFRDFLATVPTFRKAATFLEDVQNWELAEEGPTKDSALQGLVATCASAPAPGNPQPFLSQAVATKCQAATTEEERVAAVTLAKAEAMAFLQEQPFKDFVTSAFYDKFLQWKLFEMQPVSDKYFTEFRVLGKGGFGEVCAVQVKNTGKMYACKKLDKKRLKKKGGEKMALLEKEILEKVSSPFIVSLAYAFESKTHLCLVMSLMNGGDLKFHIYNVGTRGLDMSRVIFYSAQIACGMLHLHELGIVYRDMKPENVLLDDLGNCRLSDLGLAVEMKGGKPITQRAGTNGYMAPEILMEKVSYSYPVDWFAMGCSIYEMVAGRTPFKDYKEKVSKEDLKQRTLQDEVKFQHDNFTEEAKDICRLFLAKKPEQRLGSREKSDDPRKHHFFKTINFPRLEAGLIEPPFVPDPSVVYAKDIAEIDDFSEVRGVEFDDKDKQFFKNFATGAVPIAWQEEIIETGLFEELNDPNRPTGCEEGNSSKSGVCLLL

[29] = molecular target: Macrophage-stimulating protein receptor (Homo sapiens) (UniProt Q04912); assay: Inhibition of MST1R at 10 uM
[30] = molecular target: Serine/threonine-protein kinase 38 (Homo sapiens) (UniProt Q15208); assay: Inhibition of NDR1 at 10 uM
Serine/threonine-protein kinase 38 (Homo sapiens), sequence (Q15208 2-465 limits assumed): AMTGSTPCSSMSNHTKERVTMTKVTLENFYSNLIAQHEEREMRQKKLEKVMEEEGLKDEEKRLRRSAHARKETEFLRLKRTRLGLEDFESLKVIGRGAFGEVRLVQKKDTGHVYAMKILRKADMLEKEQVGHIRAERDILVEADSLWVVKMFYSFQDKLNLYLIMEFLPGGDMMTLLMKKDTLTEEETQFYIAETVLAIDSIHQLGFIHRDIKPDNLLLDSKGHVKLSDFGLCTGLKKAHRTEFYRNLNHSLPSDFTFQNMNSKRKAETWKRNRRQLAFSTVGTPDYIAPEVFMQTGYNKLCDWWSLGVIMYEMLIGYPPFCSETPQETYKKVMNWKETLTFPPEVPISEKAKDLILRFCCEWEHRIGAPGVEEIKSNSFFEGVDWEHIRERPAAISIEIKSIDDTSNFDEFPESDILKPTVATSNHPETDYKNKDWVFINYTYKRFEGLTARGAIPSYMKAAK

[31] = tested on: Phosphatidylinositol 4,5-bisphosphate 3-kinase catalytic subunit alpha isoform (Homo sapiens), P42336 [M1043I]; assay: Inhibition of PIK3CA M1043I mutant at 10 uM
[32] = molecular target: Ephrin type-A receptor 1 (Homo sapiens) (UniProt P21709); assay: Inhibition of EPHA1 at 10 uM; settings: values are per cent of control
[33] = molecular target: Ephrin type-B receptor 1 (Homo sapiens) (UniProt P54762); assay: Inhibition of EPHB1 at 10 uM; settings: values are per cent of control
[34] = molecular target: Phosphatidylinositol 4-phosphate 5-kinase type-1 gamma (Homo sapiens) (UniProt O60331); assay: Inhibition of PIP5K1C at 10 uM
[35] = molecular target: Glycogen synthase kinase-3 beta (Homo sapiens) (UniProt P49841); assay: Inhibition of GSK3B at 10 uM; settings: values are per cent of control
[36] = molecular target: Serine/threonine-protein kinase 4 (Homo sapiens) (UniProt Q13043); assay: Inhibition of MST1 at 10 uM
Serine/threonine-protein kinase 4 (Homo sapiens), sequence (Q13043 whole entry): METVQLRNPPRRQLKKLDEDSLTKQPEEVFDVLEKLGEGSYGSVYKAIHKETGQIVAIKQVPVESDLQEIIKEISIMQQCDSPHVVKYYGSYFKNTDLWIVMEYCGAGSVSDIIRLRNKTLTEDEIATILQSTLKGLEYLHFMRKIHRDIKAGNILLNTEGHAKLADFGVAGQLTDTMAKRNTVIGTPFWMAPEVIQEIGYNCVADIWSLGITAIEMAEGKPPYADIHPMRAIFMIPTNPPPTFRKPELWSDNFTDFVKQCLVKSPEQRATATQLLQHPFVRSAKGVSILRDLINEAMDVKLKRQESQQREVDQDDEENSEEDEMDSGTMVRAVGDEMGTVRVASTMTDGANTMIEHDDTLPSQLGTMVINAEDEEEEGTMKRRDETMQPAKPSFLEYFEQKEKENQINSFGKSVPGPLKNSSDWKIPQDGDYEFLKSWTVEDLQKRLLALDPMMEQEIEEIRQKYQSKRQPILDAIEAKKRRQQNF

[37] = tested on: Fibroblast growth factor receptor 3 (Homo sapiens), P22607 [G697C]; assay: Inhibition of FGFR3 G697C mutant at 10 uM; settings: values are per cent of control
[38] = molecular target: Mitogen-activated protein kinase kinase kinase 6 (Homo sapiens) (UniProt O95382); assay: Inhibition of ASK2 at 10 uM; settings: values are per cent of control
[39] = molecular target: Interferon-induced, double-stranded RNA-activated protein kinase (Homo sapiens) (UniProt P19525); assay: Inhibition of PRKR at 10 uM
[40] = molecular target: Mitogen-activated protein kinase kinase kinase kinase 3 (Homo sapiens) (UniProt Q8IVH8); assay: Inhibition of MAP4K3 at 10 uM; values are per cent of control
Mitogen-activated protein kinase kinase kinase kinase 3 (Homo sapiens), sequence (Q8IVH8 whole entry, canonical isoform): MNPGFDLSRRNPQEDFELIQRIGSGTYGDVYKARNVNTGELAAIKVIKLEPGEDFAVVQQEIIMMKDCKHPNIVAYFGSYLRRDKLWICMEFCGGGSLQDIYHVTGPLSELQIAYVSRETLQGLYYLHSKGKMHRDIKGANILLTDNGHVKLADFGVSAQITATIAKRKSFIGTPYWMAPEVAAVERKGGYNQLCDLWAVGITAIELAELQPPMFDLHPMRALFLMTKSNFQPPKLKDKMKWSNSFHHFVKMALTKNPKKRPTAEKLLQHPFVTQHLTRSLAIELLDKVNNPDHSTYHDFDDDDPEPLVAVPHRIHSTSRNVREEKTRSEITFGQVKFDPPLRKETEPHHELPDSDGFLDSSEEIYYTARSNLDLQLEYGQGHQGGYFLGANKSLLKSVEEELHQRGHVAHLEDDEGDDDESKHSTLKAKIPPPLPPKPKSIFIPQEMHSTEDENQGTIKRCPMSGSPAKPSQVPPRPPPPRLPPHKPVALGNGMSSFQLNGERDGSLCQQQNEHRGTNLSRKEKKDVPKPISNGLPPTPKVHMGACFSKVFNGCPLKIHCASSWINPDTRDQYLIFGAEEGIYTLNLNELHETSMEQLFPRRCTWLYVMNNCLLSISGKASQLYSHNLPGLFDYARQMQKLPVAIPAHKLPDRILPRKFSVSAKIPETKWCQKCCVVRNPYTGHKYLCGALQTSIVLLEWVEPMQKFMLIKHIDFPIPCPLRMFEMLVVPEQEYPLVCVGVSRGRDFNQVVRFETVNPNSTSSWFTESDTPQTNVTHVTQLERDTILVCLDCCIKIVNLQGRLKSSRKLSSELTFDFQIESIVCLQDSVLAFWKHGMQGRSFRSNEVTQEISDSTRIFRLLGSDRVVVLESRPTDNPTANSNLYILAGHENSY

[41] = molecular target: Phosphatidylinositol 4,5-bisphosphate 3-kinase catalytic subunit gamma isoform (Homo sapiens) (UniProt P48736); assay: Inhibition of PIK3CG at 10 uM
[42] = molecular target: Protein kinase C iota type (Homo sapiens) (UniProt P41743); assay: Inhibition of PRKCI at 10 uM
[43] = molecular target: Fibroblast growth factor receptor 2 (Homo sapiens) (UniProt P21802); assay: Inhibition of FGFR2 at 10 uM; settings: values are per cent of control
[44] = molecular target: Serine/threonine-protein kinase 25 (Homo sapiens) (UniProt O00506); assay: Inhibition of YSK1 at 10 uM; settings: values are per cent of control

`CCN1CCN(Cc2ccc(NC(=O)c3ccc(C)c(C#Cc4cccnc4)c3)cc2C(F)(F)F)CC1` was tested, and the level, % of control [1] was 100%, the residual binding, % of control [2] was 4% and the residual binding, % of control [3] was 100%. The residual binding, % of control [4] was 0.5%, the residual binding, % of control [5] was 99% and the inhibition [6] was 11%. For the same compound, the inhibition [7] was 1.3%, the residual binding, % of control [8] was 100% and the residual binding, % of control [9] was 0.4%. For the same compound, the residual binding, % of control [10] was 18%, the inhibition [11] was 100% and the residual binding, % of control [12] was 81%. For the same compound, the residual binding, % of control [13] was 100%, the residual binding, % of control [14] was 79% and the residual binding, % of control [15] was 0.1%. For the same compound, the inhibition [16] was 1.6%, the level, % of control [17] was 9.8% and the inhibition [18] was 0%. The residual binding, % of control [19] was 3%, the inhibition [20] was 100% and the residual binding, % of control [21] was 0.85%. For the same compound, the residual binding, % of control [22] was 0.85%, the inhibition [23] was 87% and the residual binding, % of control [24] was 1.2%. It also gave a residual binding, % of control [25] of 37%, a residual binding, % of control [26] of 100% and an inhibition [27] of 81%. It also gave a residual binding, % of control [28] of 100%, an inhibition [29] of 68% and an inhibition [30] of 4%. For the same compound, the inhibition [31] was 83%, the residual binding, % of control [32] was 1.2% and the residual binding, % of control [33] was 0.5%. For the same compound, the inhibition [34] was 90%, the residual binding, % of control [35] was 99% and the inhibition [36] was 23%. For the same compound, the residual binding, % of control [37] was 0.05%, the residual binding, % of control [38] was 12% and the inhibition [39] was 66%. It also gave a level, % of control [40] of 2.6%, an inhibition [41] of 100% and an inhibition [42] of 42%. The residual binding, % of control [43] was 0.5% and the residual binding, % of control [44] was 16%.

`CCN1CCN(Cc2ccc(NC(=O)c3ccc(C)c(C#Cc4cnc5[nH]ccc5c4)c3)cc2C(F)(F)F)CC1` gave a level, % of control [1] of 89%, a residual binding, % of control [2] of 4.9% and a residual binding, % of control [3] of 100%. For the same compound, the residual binding, % of control [4] was 2%, the residual binding, % of control [5] was 96% and the inhibition [6] was 3.2%. The inhibition [7] was 1.4%, the residual binding, % of control [8] was 83% and the residual binding, % of control [9] was 0.05%. The residual binding, % of control [10] was 7.2%, the inhibition [11] was 47% and the residual binding, % of control [12] was 41%. It also gave a residual binding, % of control [13] of 100%, a residual binding, % of control [14] of 68% and a residual binding, % of control [15] of 0.25%. It also gave an inhibition [16] of 0.8%, a level, % of control [17] of 3.8% and an inhibition [18] of 0.6%. The residual binding, % of control [19] was 1.6%, the inhibition [20] was 100% and the residual binding, % of control [21] was 0.85%. It also gave a residual binding, % of control [22] of 1.6%, an inhibition [23] of 98% and a residual binding, % of control [24] of 0.8%. It also gave a residual binding, % of control [25] of 48%, a residual binding, % of control [26] of 100% and an inhibition [27] of 63%. The residual binding, % of control [28] was 100%, the inhibition [29] was 76% and the inhibition [30] was 33%. For the same compound, the inhibition [31] was 100%, the residual binding, % of control [32] was 0.6% and the residual binding, % of control [33] was 0.35%. It also gave an inhibition [34] of 100%, a residual binding, % of control [35] of 90% and an inhibition [36] of 12%. It also gave a residual binding, % of control [37] of 0.15%, a residual binding, % of control [38] of 11% and an inhibition [39] of 54%. For the same compound, the level, % of control [40] was 1.8%, the inhibition [41] was 100% and the inhibition [42] was 40%. The residual binding, % of control [43] was 0.5% and the residual binding, % of control [44] was 12%.
